Measured values from patent US4640915A, “1-azabicyclo[3.2.0]hept-2-ene-2-carboxylic acid derivatives” (Fujisawa Pharmaceutical Co., Ltd., priority 1982, dated 1987).
Read-outs that look alike come from different tables or passages of the source.

Tests used:
[1] = system: Esherichia coli NIHJ JC-2; experiment: in vitro antimicrobial activity, two-fold agar-plate dilution method (MIC); type: cell-based; details: Escherichia coli, NIHJJC2; E. coli NIHJ JC-2; HI-agar, 37° C., 20 hours
Experimental: (§1) In vitro Antimicrobial activity was determined by the two-fold agar-plate dilution method as described below.
(§2) One loopful of an overnight culture of each test strain in Trypticase-soy broth (10^6 viable cells per ml) was streaked on heart infusion agar (HI-agar) containing graded concentrations of the test compound, and the minimal inhibitory concentration (MIC) was expressed in terms of μg/ml after incubation at 37° C. for 20 hours.

[2] = system: Staphylococcus aureus 209P JC-1; experiment: as above; type: cell-based; details: S. aureus 209P JC-1, HI-agar, 37° C., 20 hours
Experimental: as §1, §2

Ia Cephalosporinase = Ia Cephalosporinase (Enterobacter cloacae, UniProt P05364); experiment: Inactivation of β-Lactamase, direct spectrophotometric assay with chromogenic cephalosporin; type: biochemical, Enterobacter cloacae 91; details: 5 min, read-out: Inactivation (%)
Sequence of Ia Cephalosporinase (P05364 21-381): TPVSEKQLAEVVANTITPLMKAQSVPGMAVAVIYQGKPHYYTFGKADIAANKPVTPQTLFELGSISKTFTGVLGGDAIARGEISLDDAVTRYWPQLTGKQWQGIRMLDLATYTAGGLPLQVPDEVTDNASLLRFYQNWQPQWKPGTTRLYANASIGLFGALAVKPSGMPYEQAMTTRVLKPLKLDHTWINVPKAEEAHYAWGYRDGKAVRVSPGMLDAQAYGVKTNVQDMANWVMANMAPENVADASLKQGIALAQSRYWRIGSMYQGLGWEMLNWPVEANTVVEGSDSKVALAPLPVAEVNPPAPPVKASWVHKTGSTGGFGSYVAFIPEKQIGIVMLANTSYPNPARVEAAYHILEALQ
Experimental: Ia Cephalosporinase derived from Enterobacter cloacae 91.
Test compound solution (100 μg/ml) was incubated for 5 minutes at 37° C. with β-lactamase before determination of enzymatic activity. β-Lactamase activity was measured by direct spectrophotometric assay using a chromogenic cephalosporin as a substrate. The extent of inactivation was expressed as percent ratio of inactivated activity.

R-TEM Penicillinase = R-TEM Penicillinase (Escherichia coli, UniProt P62593); experiment: as above; type: biochemical, Escherichia coli 18; details: 100 μg/ml, 5 minutes at 37° C.
Sequence of R-TEM Penicillinase (P62593 24-286 limits assumed): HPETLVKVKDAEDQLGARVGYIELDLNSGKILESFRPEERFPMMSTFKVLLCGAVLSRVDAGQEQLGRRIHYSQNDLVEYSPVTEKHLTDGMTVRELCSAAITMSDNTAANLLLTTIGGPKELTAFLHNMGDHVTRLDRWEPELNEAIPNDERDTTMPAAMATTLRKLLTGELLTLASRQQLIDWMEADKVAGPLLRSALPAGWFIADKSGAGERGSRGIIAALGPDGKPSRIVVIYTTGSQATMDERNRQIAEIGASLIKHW

Escherichia coli 36 = experiment: Synergistic Protecting Effect on experimental mice infection; type: in vivo, ICR strain-mice (infected with Escherichia coli 36); details: combination 1:1 by weight, subcutaneous, one hour after i.p. challenge, survival over 4 days
Experimental: (i) Combination of Compound C (Compound of the present invention) and Ceftizoxime (known antimicrobial agent, hereinafter referred to as CZX) (1:1 by weight).
(ii) Combination of Compound C (Compound of the present invention) and Cefazolin (known antimicrobial agent, hereinafter referred to as CEZ) (1:1 by weight).
4-week-old male ICR strain-mice, weighing 21.5±1.5 g.
1.1×10^5 Colony forming unit of Escherichia coli 36 suspended in 0.5 ml of 5% mucin were intraperitoneally injected.
One hour after challenge, mice were treated subcutaneously with various doses of test compound. The ED50 values were calculated by the probit method from the number of mice surviving 4 days of observation.

Cc1nnc(SC2=C(C(=O)[O-])N3C(=O)[C@@H](C(C)(C)O)[C@H]3C2)s1.[K+] [Compound B, Potassium (5R, 6R)-3-(5-methyl-1,3,4-thiadiazol-2-ylthio)-6-(1-hydroxy-1-methylethyl)-7-oxo-1-azabicyclo[3.2.0]hept-2-ene-2-carboxylate]
MIC [1]: 0.2 µg/mL
MIC [2]: 0.2 µg/mL

Cn1nnnc1SC1=C(C(=O)[O-])N2C(=O)[C@@H](C(C)(C)O)[C@H]2C1.[K+] [Compound D, Potassium (5R,6R)-3-(1-methyl-1H-tetrazol-5-ylthio)-6-(1-hydroxy-1-methylethyl)-7-oxo-1-azabicyclo[3.2.0]hept-2-ene-2-carboxylate]
inhibition at 100 µg/mL (Ia Cephalosporinase): > 95%
Inactivation (%) (R-TEM Penicillinase): > 95%

CC(C)(O)[C@@H]1C(=O)N2C(C(=O)[O-])=C(Sc3ccncc3)C[C@H]12.[Na+] [Compound A, Sodium (5R, 6R)-3-(4-pyridylthio)-6-(1-hydroxy-1-methylethyl)-7-oxo-1-azabicyclo[3.2.0]hept-2-ene-2-carboxylate]
MIC [1]: 0.1 µg/mL
MIC [2]: 0.1 µg/mL

CC(C)(O)[C@H]1C(=O)N2C(C(=O)[O-])=C(Sc3ccncc3)C[C@H]12.[Na+] [Compound C, Sodium (5R,6S)-3-(4-pyridylthio)-6-(1-hydroxy-1-methylethyl)-7-oxo-1-azabicyclo[3.2.0]hept-2-ene-2-carboxylate]
inhibition at 100 µg/mL (Ia Cephalosporinase; 100 μg/ml, 5 minutes at 37° C., Ia Cephalosporinase): > 95%
Inactivation (%) (R-TEM Penicillinase): > 95%
ED50 values (Escherichia coli 36; (i) with CZX): > 112 mg/kg
ED50 values (Escherichia coli 36; (ii) with CEZ): > 112 mg/kg

Cc1nnc(SCC2=C(C(=O)O)N3C(=O)[C@@H](NC(=O)Cn4cnnn4)[C@H]3SC2)s1 [CEZ, Cefazolin, reference compound]
ED50 values (Escherichia coli 36; (ii) with CEZ): 20.8 mg/kg

CO/N=C(\C(=O)N[C@@H]1C(=O)N2C(C(=O)O)=CCS[C@H]12)c1csc(N)n1 [CZX, Ceftizoxime, reference compound]
ED50 values (Escherichia coli 36; (i) with CZX): 3.42 mg/kg
